{"source": "patent US10233151B2", "about": "“Use of a novel 3-aryl-4-catechol-pyrrole-N-propanol compound and the derivatives thereof to treat cancer and diseases related to excessive angiogenesis” (Centre National de la Recherche Scientifique (CNRS), priority 2014, dated 2019)", "key": {"[1]": {"test": "EPR competition with BMPO, superoxide anion from KO2 in DMSO (organic phase)", "details": "KO2 5 mM in DMSO, BMPO 25 mM, room temperature; read-out: IC50, inhibition of the formation of the BMPO superoxide adduct", "method": "The reactivity of compound (1) with superoxide anion in the organic phase was studied by EPR at room temperature using a competition method with the superoxide trapping reagent BMPO (5-tent-butoxycarbonyl-5-methyl-1-pyrroline N-oxide) (FIG. 1A). The superoxide anion source is potassium salt (KO2) used at 5 mM in DMSO after ultrasound-assisted dissolution. The concentrations used for compound (1) are between 0.31 and 40 μM. The trapping reagent BMPO is used at a final concentration of 25 mM. These experiments were carried out with a MiniScope MS 100 EPR spectrometer (Magnettech GmbH, Germany), operating at a frequency of 9.5 GHz (X-band) with the following parameters: magnetic field: 336.0±9.9 mT; sweep time: 20 s; sampling: 4096 points; modulation amplitude: 0.10 mT; modulation frequency: 100 kHz; gain: 900; microwave power: 100 mW."}, "[2]": {"tested_on": "caspases 3 and 7 in HCT-116 cells", "test": "Caspase 3 and 7 activity (ApoONE test), HCT-116", "type": "cell-based", "method": "In order to specify whether compound (1) leads to apoptotic cell death, the activity of caspases 3 and 7, marker enzymes of apoptosis, was measured using the ApoONE test (Promega) in HCT-116, U87 and HL60 cells treated in normoxia for 24 hours with compound (1) at concentrations varying from 1 μM to 50 μM.\nIn order to determine the role of superoxide anion, produced by the cells, in the activation of compound (1), HCT-116 cells were pretreated for 1 hour with the enzyme superoxide dismutase (SOD1) at 50 U/ml, then treated with compound (1). The cells were analyzed to evaluate, firstly, cell survival in normoxia (72 hours of treatment) and in hypoxia (48 hours of treatment). Secondly, the formation of condensed chromatin in normoxia and the activity of caspases 3 and 7 in normoxia were evaluated."}}}
{"smiles": "OCCCn1cc(-c2ccccc2)c(-c2ccc(O)c(O)c2)c1", "note": "[compound (1)]", "values": [{"measurement": "IC50", "setting": "[1]", "result": 2500, "unit": "nM"}, {"measurement": "activation of caspases 3-7 after SOD pretreatment", "setting": "[2]; HCT-116, SOD1 50 U/ml pretreatment, normoxia", "result": "completely suppressed"}, {"measurement": "activity of caspases 3 and 7", "setting": "[2]; HCT-116, normoxia, 24 hours, 1 μM to 50 μM", "result": "significant activation of both caspases"}]}
